Reference: BindingDB's records for doi:10.1016/j.bmcl.2010.09.117 (University of London, 2010)

Target: Signal transducer and activator of transcription 3 (Homo sapiens, UniProt P40763)
Assay: Inhibition of STAT3 in human HeLa cells by luciferase reporter assay

Signal transducer and activator of transcription 3, sequence (P40763 whole entry): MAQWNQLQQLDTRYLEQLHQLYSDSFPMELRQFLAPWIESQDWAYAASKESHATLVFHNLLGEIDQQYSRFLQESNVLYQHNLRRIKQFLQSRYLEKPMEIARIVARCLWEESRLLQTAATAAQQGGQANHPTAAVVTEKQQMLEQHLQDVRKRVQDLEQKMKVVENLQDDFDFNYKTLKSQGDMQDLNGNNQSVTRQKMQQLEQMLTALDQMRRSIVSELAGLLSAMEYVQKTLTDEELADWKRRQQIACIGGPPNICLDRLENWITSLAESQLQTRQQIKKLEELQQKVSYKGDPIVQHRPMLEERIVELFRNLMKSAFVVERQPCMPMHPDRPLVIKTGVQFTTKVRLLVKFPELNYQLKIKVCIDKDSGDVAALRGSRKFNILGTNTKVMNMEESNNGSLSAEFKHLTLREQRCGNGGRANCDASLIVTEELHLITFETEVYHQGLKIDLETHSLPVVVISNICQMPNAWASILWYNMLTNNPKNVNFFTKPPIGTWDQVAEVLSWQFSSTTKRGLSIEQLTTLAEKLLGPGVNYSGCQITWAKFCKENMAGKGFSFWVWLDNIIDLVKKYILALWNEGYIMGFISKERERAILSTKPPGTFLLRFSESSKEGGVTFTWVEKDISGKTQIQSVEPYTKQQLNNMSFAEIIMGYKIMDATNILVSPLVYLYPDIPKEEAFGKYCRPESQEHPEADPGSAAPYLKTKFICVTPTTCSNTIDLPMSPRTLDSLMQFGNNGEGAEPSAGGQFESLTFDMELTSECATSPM

EC50: 15 µM
SMILES: Cc1ccc(-c2sc(C(=O)NCc3cccs3)cc2S(=O)(=O)N2CCCC2)cc1 [4-(pyrrolidin-1-ylsulfonyl)-N-(thiophen-2-ylmethyl)-5-p-tolylthiophene-2-carboxamide]
